In PMC8700061, “Fragment-Sized and Bidentate (Immuno)Proteasome Inhibitors Derived from Cysteine and Threonine Targeting Warheads” (Cells, 2021) one finds half-life data, which are given here for two molecules.

This data set deals with GSH. As to the kind of experiment: HPLC-based GSH reactivity assay. Format: physicochemical. The following applies: 5 mM glutathione (GSH) in PBS buffer; 250 µM compound, 5 mM GSH, PBS pH 7.4; read-out: Reactivity with GSH (HPLC-based assay), t1/2. The protocol:
GSH reactivity assay was performed as described by Petri et al.; 500 μM solution of compound (PBS buffer pH 7.4, 10% MeCN, 250 μL) with 200 μM solution of indoprofen as internal standard were added to 10 mM GSH solution (dissolved in PBS buffer, 250 μL) in a 1:1 ratio. […] The final mixture was analyzed by HPLC after 0, 1, 2, 4, 8, 12, 24, 48, and 72 h. The degradation kinetics were also studied using the method described in [24], except that pure PBS buffer was used instead of GSH solution. […] The area under the curve (AUC) values were determined by integrating the HPLC spectra and then corrected with the internal standard.

Structures are written as SMILES.

As to `CC(C)C[C@H](NC(=O)Cc1ccc2oc(C#N)nc2c1)B1O[C@@H]2C[C@@H]3C[C@@H](C3(C)C)[C@]2(C)O1` [Compound 39], the half-life at 250 µM fell in the range of 3 to 60 min.

Regarding `COc1cccc2oc(C#N)nc12` [Compound 6], the half-life at 250 µM is less than 3 min.
